“Also recorded” adds a separate entry of the source. Read-outs that look alike come from different tables or passages of the source. Each block holds one compound with its values, some of them ahead of it.
Legend:
N-mSMase ε = assay: N-mSMase activity assay: hydrolysis of [N-methyl-14C]sphingomyelin with added cations, reducing agents or surfactants; type: biochemical, bovine; details: for influence of reducing agents on N-mSMase ε activity: 0.5-10 mM; for influence of glutathione-like agents on N-mSMase ε activity: 1, 3, 5 or 10 mM
Procedure: (§1) After being dried with a nitrogen stream, [N-methyl-^14C]sphingomyelin (choline residue labeled with ^14C) was suspended in ethanol. 10 μl of a sample was mixed with 100 μl of a reaction solution (10 mM MgSO4, 50 μM [N-methyl-^14C]sphingomyelin (c.a. 60,000 cpm), 2 mM sodium deoxycholate, 100 mM Tris-HCl (pH 7.0)) and incubated at 37° C. for 30 min. Addition of 320 μl of a mixture of chloroform/methanol (1:1 volume ratio) and 30 μl of 2N hydrochloride stopped the reaction. After vortexing and centrifuging the resulting mixture at 10,000× g, 200 μl of the aqueous layer was mixed with 2.5 ml of a scintillation cocktail, such as that manufactured by Packard Instrument Co., U.S.A., identified as “Insta gel-XF”, followed by measuring the radioactivity with the aid of a Packard Tri-carb liquid β-scintillation counter.
In order to examine the dependency of N-mSMase ε activity on Mg^2+, Fraction B obtained in Step 6 of Example 1 was desalted by being applied to a PD-10 column (Sephadex G-25, Pharmacia Biotechnology Co., Sweden) For use, the column was equilibrated twice with distilled water, in advance. The desalted protein fraction (corresponding to protein 10 ng) was measured for N-mSMase ε activity in the presence of […] of MgCl2 in the manner described in Experimental Example 1.
An examination was made of the influence of other cations, such as Ca^2+, Fe^3+, Fe^2+, Zn^2+, Cu^2+ and […] on the activity of N-mSMase ε. To a solution containing the desalted protein fraction (corresponding to protein 10 ng) obtained in C and 5 mM MgCl2, CaCl2, FeCl3, FeCl2, ZnCl2 or CuCl2 was added to yield a final concentration of 0.01, 0.02, 0.05, 0.1, 0.25 or 0.5 mM, followed by the measurement of N-mSMase ε activity in accordance with the procedure of Experimental Example 1.
After the addition of 10 μl of [N-methyl-^14C]sphingomyelin, the N-mSMase activity was measured according to the procedure of Experimental Example 1. For comparison, a Tris-HCl buffer containing no reducing agents was used as a control. The N-mSMase ε activity influenced by the reducing agents was expressed as a percentage relative to the control.
After being treated with 1, 3, 5 or 10 mM of GSSG, cystein, cystein-glycine or γ-glutaric acid-cystein, the activity of N-mSMase ε was measured in the same manner.
Sodium deoxycholate and Triton X-100 were selected as surfactant5 to be tested. The protein fraction obtained in C (corresponding to 10 ng of protein) was measured for N-mSMase ε activity in reaction solutions containing 0.5, 1, 2 and 5 mM of sodium deoxycholate, respectively, in accordance with the procedure of Experimental Example 1. In the case of Triton X-100, it was prepared at concentrations of 0.05, 0.01, 0.5 and 0.1%.

[1] = tested on: partially purified N-mSMase from rat brain; details: Liu et al., J. Biol. Chem. 273, 34472-34479; cited from earlier work
[2] = Kinetic analysis (Lineweaver-Burk), substrate specificity and optimum pH of the purified enzyme; type: biochemical, bovine; details: 0.4, 1.0 and 2.0 mM sodium deoxycholate
Procedure: as §1
The N-mSMase ε prepared in Step 6 of Example 1 was subjected to Lineweaver-Burk analysis. In this regard, enzyme N-mSMase ε was used at amounts of 10 ng or less with the substrate sphingomyelin varying, in concentration, from 6.25 to 100 μM.
Separately, the same Lineweaver-Burk analysis was carried out, but in the presence of 0.4, 1.0 and 2.0 mM sodium deoxycholate. […]

[3] = desalted protein fraction (10 ng), 5 mM MgCl2, chloride salts 0.01-0.5 mM, read-out: IC50, inhibition of enzyme activity (hydrolysis of sphingomyelin) by cations

Compound: O[C@H](CS)[C@H](O)CS (racemic) [DTT, dithiothreitol]
influence of reducing agents on N-mSMase ε activity (N-mSMase ε; preincubation 37° C. 10 min): not inhibited | influence of reducing agents on N-mSMase ε activity (N-mSMase ε; preincubation 37° C. 10 min, listed as dithiothreitol): neither dithiothreitol nor 2-mercaptoethanol has any influence | effect on the activity of partially purified rat brain N-mSMase [1]: promoted

Compound: OCCS [2-mercaptoethanol]
influence of reducing agents on N-mSMase ε activity (N-mSMase ε; preincubation 37° C. 10 min): not inhibited; also recorded: neither dithiothreitol nor 2-mercaptoethanol has any influence

Compound: N[C@@H](CS)C(=O)O [cystein]
influence of glutathione-like agents on N-mSMase ε activity (N-mSMase ε): inhibited; also recorded: reduction in the activity

Compound: N[C@@H](CCC(=O)N[C@@H](CS)C(=O)O)C(=O)O [γ-glutaric acid-cystein]
influence of glutathione-like agents on N-mSMase ε activity (N-mSMase ε): inhibited; also recorded: reduction in the activity

Compound: oxidized glutathione [GSSG]
influence of glutathione-like agents on N-mSMase ε activity (N-mSMase ε): inhibited; also recorded: reduction in the activity

Compound: phosphatidylserine
effect on the activity of partially purified rat brain N-mSMase [1]: promoted

Compound: sodium deoxycholate
effect on the Km value of N-mSMase ε [2]: could not change

More lines, main results first:

influence on the activity of N-mSMase ε (N-mSMase ε; concentration of 0.5 mM or less, 5 mM MgCl2): no influence
Compound: [Ca+2].[Cl-].[Cl-] [Ca^2+, CaCl2]

IC50 (N-mSMase ε; [3]): 28 µM
Compound: [Cl][Cu][Cl] [Cu^2+, CuCl2]

dependency of N-mSMase ε activity on Mg2+ (N-mSMase ε; 1, 5, 10 and 25 mM MgCl2, desalted fraction B): Mg^2+-concentration dependent
Compound: [Cl-].[Cl-].[Mg+2] [Mg^2+, MgCl2]

IC50 (N-mSMase ε; [3]): 32 µM
Compound: [Cl-].[Cl-].[Zn+2] [Zn^2+, ZnCl2]

activity of N-mSMase ε with increasing glutathione concentration up to 3 mM (N-mSMase ε; glutathione up to 3 mM): increases | IC50 (N-mSMase ε; read-out: IC50, inhibition of sphingomyelinase activity by glutathione, glutathione above 3 mM, preincubation 37° C. 10 min, Tris-HCl pH 7.5): 8000 µM
Compound: N[C@@H](CCC(=O)N[C@@H](CS)C(=O)NCC(=O)O)C(=O)O [glutathione]
activity of N-mSMase ε at 10 mM glutathione (N-mSMase ε; glutathione 10 mM): fully inhibited; also recorded: completely inhibited

Source: US20020137173A1, “Membrane-associated sphingomyelinase derived from bovine brain, isolation method therefor and anti-sphingomyelinase monoclonal anitibody” (priority 2001, published 2002)
